In assay [1] the test system is K562. Kind of assay: Cell proliferation assay using SRB, K562. The format is cell-based. As to conditions: Homo sapiens, 48 hours treatment. The method, then: Human leukemia cell lines CCRF-CEM, K562, MOLT-4, RPMI-8226 and SR, purchased from the National Cancer Institute (NCI), were cultured in RPMI 1640 medium supplemented with 5%(v/v) fetal Bovine […] and 100 units/ml penicillin and 100 units/ml streptomycin in a humidified 5% CO2 atmosphere at 37° C. • 6.1.2 Reagents and Antibodies
All 5 human leukemia cells were screened by the cell proliferation assay using SRB to quantitative cell protein mass following cucurbitacin B treatment. The experiments were repeated in triplicate. Appropriate number of cells (depends on the doubling time of cells) were seeded into a 96-well tissue culture plate and growth in the indicated medium in presence of different dosages of cucurbitacin B for 2 days. Afterwards 25 μl 80%TCA reagent was added into each well to fix the cells and the plates were incubated at 4° C. at least for 1 hour. Then the plates were washed with tap water and air dried. […] The plates were air dried and dissolved by 100 μl 1 OmMTrizma-base solution and the absorbance was measured at 515 nm using FLUOstar OPTIMA equipment. • 6.1.4 Flow Cytometry for Apoptosis Analysis
Appropriate number of cell density were seeded into a 96 well culture plate and treated with different doses of cucurbitacin B for 2 days. The growth inhibition effects of cucurbitacin B on the cells were detected using SRB.

Assay [2] concerns 59 human cancer cell lines. Description: SRB growth inhibition, 59-NCI Cancer Cell Line Panel. The class given is cell-based. As to conditions: 48 hours, range over 59 cell lines. The text has this: (§1) Human cancer cell lines from the 59-NCI Cancer Cell Line Panel including leukemia, melanoma and cancers of breast, brain, colon, lung, ovary, prostate and kidney, were purchased from the National Institute of Cancer (USA). The growth inhibition (GI50) of these cell lines treated with cucurbitacin B and cucurbitacin D in various concentrations was investigated.
(§2) 59 human cancer cell lines were maintained in RPMI 1640 (Invitrogen Life Technologies, CA, USA) supplemented with 5% Fetal Bovine Serum, 2 mM L-glutamine and 1% Penicillin/Streptomycin (Invitrogen Life Technologies) at 37° C. with 5% CO2. All chemicals were purchased from Sigma (St. Louis, Mo., USA) unless specified otherwise.
(§3) Sulforhodamine B (SRB) assay was applied to determine the cytostatic effect of cucurbitacin B and cucurbitacin D. SRB is a dye that binds to cellular proteins and will be dissolved in base. The biomass of total protein can be measured at 520 nm using a plate reader.
(§4) Cells were inoculated into 96-well microtiter plates including “Time zero” (Tz) plates in 100 μl at cell concentrations from 5000 to 40,000 cells per well according to NCI guideline. The cells were incubated at 37° C. with 5% CO2 for 24 hours. […] Bound SRB was solubilized with 100-200 ul per well of 10 mM trizma base and absorbance was measured at a wavelength of 520 nm. The percentage of growth inhibition was calculated as follows: […]

The test system of assay [3] is Ras-GTP. Kind of assay: GTPase pull-down assay (GST-Raf1-RBD) in K562 cells. The format is cell-based, human. As to conditions: 50 μM, 2 minutes to 4 hours. The procedure: Lysate with 500 μg protein were used to determined the Ras-GTP content by the Glutathione S-transferase(GST)-RBD(Ras-binding domain of Raf) pull down assay. The treated and control cells were lysed in lysis buffer (25 mMTris-HCl, pH7.5, 150 mM NaCl, 5 mM MgCl2, 1% NP-40, 1 mM DTT and 5% glycerol) for 5 minutes at 4° C. Soluble cell lysates were obtained by centrifuged at 17000 g for 5 minutes. 500 μg cell lysate were collected and incubated with 80 μg GST-Raf1-RBD in 50 mM Tris-HCl, pH7.2, 150 mM NaCl, 0.5% Triton X-100, 5 mM MgCl2, 1 m MDTT and 10% glycerol for 1 hour at 4° C. The beads were washed with lysis buffer for 3 times and then resuspended and boiled in 2×sample buffer at 100° C. for 5 minutes. 25 μsupernatants were collected by centrifuged at 7200 g for 2 minutes and then resolved in 15% SDS-PAGE followed by western blot analysis using anti-Ras antibody. • 6.1.8 Laboratory-Scale Preparation of Cucurbitacin B and Cucurbitacin D
In order to further investigate if cucurbitacin B block the Stat3 activation is truly through Erk pathway in K562 cells, the ability of cucurbitacin B to inhibit the Ras/Raf/Mek/Erk pathway was determined by measuring Ras-GTP, phosphorylation of c-Raf, Mek1/2, Erk1/2 and Elk-1 in K562 cells. The cells were incubated with 50 μM cucurbitacin B for the indicated time intervals (2 minutes, 5 minutes, 10 minutes, 30 minutes, 1 hour and 4 hours). […]

Assay [4] deals with Prostate cancer. Description: SRB growth inhibition, prostate cancer lines of the NCI panel. The class given is cell-based. Conditions: Homo sapiens, 48 hours.
Text: as §1, §2, §3, §4

The test system of assay [5] is Stat3. Kind of assay: Western blot of Stat3 activation in HepG2, HT29 and MCF-7 cells. The format is cell-based, human. Background: In western blotting, separated proteins are transferred to a membrane and probed.

Each structure is given as a SMILES string.

`CC(=O)OC(C)(C)/C=C/C(=O)[C@](C)(O)C1[C@H](O)C[C@@]2(C)C3CC=C4C(C[C@H](O)C(=O)C4(C)C)[C@]3(C)C(=O)C[C@]12C` (stereo partly drawn) [cucurbitacin B]: the GI50 (in general, the concentration that inhibits growth by half) is 0.0156 µM in assay [1], 0.0058 to 0.164 µM in assay [2] and 0.017 µM in assay [4]. Also, in assay [3], the Ras-GTP activation result was “no significant change”. For the same molecule, the Stat3 activation result in assay [5] (HepG2 cells and HT29 cells, 25 ug/ml, 30 minutes) was “inhibited significantly”; in assay [5] (MCF-7 cells) it was “no significant change”.
